Data from publication PMC7053711, “A G protein–coupled receptor mediates neuropeptide-induced oocyte maturation in the jellyfish Clytia” (PLoS Biology, 2020).
“Also recorded” adds a separate entry of the source. Peptide text beside a SMILES is read from it.

Assays:
hydrozoan oocytes = conditions: cell-permeable analogue of cAMP; ref [3],[21]; cited from earlier work
Source text: We performed a series of oocyte maturation and spawning assays, comparing the responses of wild-type and MIHR mutant isolated gonads and oocytes to different stimuli (Fig 4). […] I ...

[1] = test system: MIHR mutant (n5-23, n5-13) isolated female gonads; assay: Gonad spawning assay, MIHR mutant isolated gonads; parameters: species or system Clytia hemisphaerica; conditions: isolated MIHR mutant gonads, 4 mM Br-cAMP, washed after 5 minutes
Protocol: We performed a series of oocyte maturation and spawning assays, comparing the responses of wild-type and MIHR mutant isolated gonads and oocytes to different stimuli (Fig 4).
Sexually mature MIHR mutant medusae from colonies n5-13 and n5-23 and wild-type medusae were cultured on the same day–night cycle. Individual gonads were dissected in the evening after afternoon spawning. To test the light response, one group of each was transferred to 100 μL MFSW in wells of 96-well plastic plates, covered overnight, and re-exposed to white light the following day. To test responses to MIH and cAMP, other groups of dissected gonads were cultured overnight in constant light, then transferred to 96-well plastic plates for two hours. MIH was added to wells as an equal volume of 200 nM WPRPamide (GenScript) stock in MFSW was added to give a final concentration of 100 nM. Alternatively, a stock of 20 mM bromo adenosine 3′,5′cyclic monophosphate (Br-cAMP–Fluka; Sigma Aldrich) in distilled water was added to give a final concentration of 4 mM. Gonads were washed after 5 minutes incubation in Br-cAMP. Oocyte maturation was scored after 30 minutes as germinal vesicle breakdown (GVBD), i.e., visible dissolution of the oocyte nuclear membrane upon entry into M phase, which in all cases was followed by spawning about 1 hour later.
(§1) Supplementary file pbio.3000614.s013.xlsx: S3 Data Numerical data corresponding to Fig 4A and 4C. The first tab collects all the raw data from 3 independent gonad spawning assays. Information corresponding to the Fisher exact tests is also shown. […] The means and standard deviations were used to prepare the graph in Fig 4C. Information corresponding to the Fisher exact tests is also shown. (XLSX) Click here for additional data file.

[2] = test system: fully grown oocytes isolated from WT gonads; assay: Oocyte maturation assay, wild-type isolated oocytes (GVBD); assay type: cell-based, Clytia hemisphaerica
Source text: (§2) Fig 4 Oocyte maturation failure in MIHR mutant medusae. Oocyte maturation assays performed using isolated gonads (A, B) or isolated oocytes (C) from MIHR mutant jellyfish compared to WT. In A and C, bar heights represent mean percentages of 3 independent experiments and error bars show standard deviations. Total gonad or oocyte numbers for each treatment are indicated in gray. (A) Spawning response of isolated gonads from WT and n5-23 female medusae. Three treatments were compared as indicated above each panel: Light: light stimulation after incubation in the dark; MIH: treatment of light-maintained gonads with 100 nM WPRPamide; cAMP: treatment of light-maintained gonads with 4 mM Br-cAMP. […] Full datasets from three independent experiments are available in S3 Data. (B) Light microscope images illustrating gonads from an equivalent experiment performed with n5-13 female MIHR mutant medusae 120 minutes after the indicated treatments. Scale bar: 500 μm. […] Full datasets from 3 independent experiments are available in S3 Data. Br-cAMP, bromoadenosine 3′,5′-cyclic monophosphate; cAMP, cyclic adenosine monophosphate; KO, knockout; MIH, maturation-inducing hormone; MIHR, MIH receptor; WT, wild-type.
(§3) Fully grown oocytes were isolated manually from dissected gonads of wild-type and MIHR KO mutant jellyfish prepared as above. Maturation assays were performed in wells of 96-well plates or small plastic petri dishes lined with 2% agarose in MFSW. Spontaneous maturation occurs at a low frequency in control oocytes. To test MIH-induced maturation, 10 μL WPRPamide from 1 μM solution in MFSW was added to a final concentration of 100 nM. In some experiments, Br-cAMP from a 20 mM stock in H2O was used at a final concentration of 4 mM. GVBD was scored at 30 minutes, every 5 minutes, depending on experiments.
as §1

[3] = test system: fully grown oocytes isolated from MIHR mutant (n5-23) gonads; assay: Oocyte maturation assay, MIHR mutant isolated oocytes (GVBD); assay type: cell-based, Clytia hemisphaerica
Source text: as §2, §3, §1

Clytia MIHR [4] = assay: GPCR deorphanization assay, luminescence response to peptides at 1 μM (CHO-K1 cells, Gα-16, GFP-apoaequorin); assay type: cell-based, Clytia hemisphaerica; conditions: peptide 1E-6M, normalised to Platynereis FLamide receptor + 1 μM AKYFL-NH2, n = 3
Source text: We used a cell culture–based GPCR deorphanization assay to identify the MIH receptor from our candidate shortlist. cDNAs for each candidate were transfected into Chinese Hamster ovary K1 (CHO-K1) cells along with the promiscuous Gα protein Gα-16, and an aequorin-GFP luminescence reporter that measures Ca^2+ mobilization downstream of this heterologous Gα protein [27, 28]. We first screened the 16 candidate Clytia GPCRs against a mixture of 33 synthetic amidated peptides (including MIHs) predicted to be generated from previously identified putative Clytia neuropeptide precursors and one additional one identified from transcriptome data. Given our imperfect knowledge of pro-peptide processing in cnidarians, some of the synthetic peptides may not correspond to endogenous peptides. Only one of the 16 GPCRs was activated by this peptide mixture. This receptor responded well to all 4 synthetic Clytia MIH tetrapeptides, as well as to related Cladonema MIH peptides that can also activate Clytia oocyte maturation, but not to other Clytia peptide mixtures or poorly active MIH penta-/tripeptides. We termed this Clytia GPCR the Maturation Inducing Hormone Receptor (MIHR). The activity of individual peptides at 1 μM to stimulate the MIHR closely matched their in vivo ability to induce oocyte maturation (Fig 1B).
(§4) Cell culture GPCR ligand response assays were performed as described. Briefly, CHO-K1 cells were cultured in Ham’s F12 Nut Mix medium (Thermo Fisher Scientific) with 10% foetal bovine serum. Cells were seeded in 96-well plates at approximately 10,000 cells/well and transfected the following day with pcDNA3.1(+) plasmids encoding each of the 16 candidate Clytia GPCRs (S2 Text), the promiscuous Gα-16 protein [65], and a reporter construct GFP-apoaequorin [66] (60 ng each) using the transfection reagent TurboFect (Thermo Fisher Scientific). After 2 days of expression, the medium was removed and replaced with Hank’s balanced salt solution (HBSS) supplemented with 1.8 mM Ca2+, 10 mM glucose, and […] coelenterazine h (Promega, Madison, WI). After incubation at 37 °C for 2 hours, cells were tested by adding synthetic peptides (GenScript) in HBSS supplemented with 1.8 mM Ca2^+ and 10 mM glucose. A list of all synthetic peptides used is provided in S2 Table. Luminescence was recorded for 45 seconds in a plate reader (BioTek Synergy Mx or Synergy H4; BioTek, Winooski, VT). Data were integrated over the 45-second measurement period and recorded as technical triplicates in each case. Data were normalized using the response of Platynereis FLamide receptor to 1 μM AKYFL-NH2 [28]. Dose–response curves were obtained using concentrations between 0.01 nM and 100 μM for each peptide. Data for dose–response curves were recorded in triplicate for each concentration and the experiment was repeated independently 3 times. Dose–response curves were fitted with a four-parameter curve using Prism 6 (GraphPad, La Jolla, CA) and were normalized to the calculated upper plateau values (100% activation).
Supplementary file pbio.3000614.s011.xlsx: S1 Data Numerical data corresponding to Fig 1B. Raw luminescence values obtained in triplicate for each of the neuropeptide combinations tested against the MIHR in the deorphanization assay are provided. In the right-hand table, the raw luminescence values obtained in quadruple for the positive and negative controls are provided. In the lower table, means and standard errors of the mean of the luminescence values obtained for each neuropeptide combination and controls are also shown, as well as the values normalized to the positive control, which were used to prepare the graph shown in Fig 1B. MIHR, MIH receptor. (XLSX) Click here for additional data file.

Clytia MIHR [5] = assay: Dose–response curves of Clytia MIHR, luminescence (CHO-K1 cells, Gα-16, GFP-apoaequorin); assay type: cell-based, Clytia hemisphaerica; parameters: key to Span (best-fit value) / Bottom (best-fit value): % activation, normalized to fitted upper plateau (100%); conditions: for EC50: four-parameter fit, variable slope, triplicate; for HillSlope / LogEC50: best-fit value; for Bottom / Span / Top: best-fit value (luminescence)
Protocol: The Clytia MIH amidated peptides are produced from two precursor genes Che-pp4 (generating multiple copies of WPRAamide, WPRYamide, and WPRPamide) and Che-pp1 (multiple copies of WPRPamide and RPRGamide).
as §4
Supplementary file pbio.3000614.s012.xlsx: S2 Data Numerical data corresponding to Fig 1C. The first three tabs show statistical values obtained using Prism 6 software (GraphPad, La Jolla, CA) from the raw luminescence values for 3 independent dose–response experiments. The raw luminescence values are shown, as well as the values normalized with respect to the maximum. […] MIH, maturation-inducing hormone. (XLSX) Click here for additional data file.

[6] = test system: Platynereis FLamide receptor; assay: Positive control of deorphanization assay, luminescence; assay type: cell-based; conditions: 1 μM AKYFL-NH2
Source text: Fig 1 Identification of the Clytia MIHR. (A) Diagram of a Clytia gonad showing the different tissues used for RNA-seq and GPCR expression comparisons. A total of 536 putative GPCRs identified in Clytia mixed-stages transcriptome were assigned to the three main GPCR classes (A, B, C) or “other” based on Pfam signatures. The 16 top candidate MIH GPCRs were selected based on oocyte enrichment, relatedness to known bilaterian class-A neuropeptide GPCRs, and Pfam information. (B) Luminescence response of CHO-K1 cells expressing the putative Clytia MIH GPCR treated with neuropeptide mixes lacking MIH activity (purple bars), MIH tetrapeptides identified from C. hemisphaerica (blue bars) or Cladonema radiatum (green bars), or related penta- and tripeptides previously shown to be ineffective in triggering oocyte maturation in vivo (red bars). Empty pcDNA3.1 vector was used as negative control and Platynereis FLamide and its receptor as a positive control (gray bars). Peptide concentrations all 1 μM. Absolute units of luminescence were normalized using the positive control; data are shown as mean ± standard error of the mean (n = 3). […] Luminescence values were normalized relative to the maximum of fitted dose–response curves and are shown as mean ± standard error of the mean (n = 3). Half maximal effective concentration (EC50) values were calculated as means of 3 independent experiments. […]

[7] = 100 nM WPRPamide or 4 mM Br-cAMP
[8] = log(agonist) vs. response, variable slope (four parameters), fit of third dataset

For `Nc1ncnc2c1nc(Br)n2[C@@H]1O[C@@H]2COP(=O)(O)O[C@H]2[C@H]1O` [Br-cAMP, bromoadenosine 3′,5′-cyclic monophosphate, reference compound], the hydrozoan oocyte maturation (hydrozoan oocytes) is listed as “induces hydrozoan oocyte maturation”, the “oocyte maturation and spawning of MIHR mutant gonads, Br-cAMP treatment” value [1] is listed as “rescued meiotic maturation and spawning; also recorded: rescued the phenotype of MIHR mutant gonads, efficiently triggering oocyte maturation and spawning; also recorded: provoked oocyte maturation and spawning” and the “maturation of isolated WT oocytes” value [2, 7] is listed as “triggered maturation of WT oocytes”. The “time to visible GVBD, isolated WT oocytes” value [2, 7] was 20 to 30 min, the “Percentage of Oocyte maturation, Mean” value ([2]; cAMP (4mM BrcAMP), WT, mean of 3 replicates, Sdev 14.23) was 84.33 and the “maturation of isolated MIHR mutant oocytes, Br-cAMP” value ([3]; 4 mM Br-cAMP) was “promoted maturation of isolated fully grown MIHR mutant oocytes; also recorded: only Br-cAMP induced maturation of MIHR KO oocytes”. The “Percentage of Oocyte maturation, Mean” value ([3]; cAMP (4mM BrcAMP), MIHR KO, mean of 3 replicates, Sdev 6.00) was 89.91.

For `N=C(N)NCCC[C@H](NC(=O)[C@@H]1CCCN1C(=O)[C@@H](N)CCCNC(=N)N)C(=O)N[C@@H](Cc1ccc(O)cc1)C(N)=O` [RPRYa] (H-RPRY-NH2; N-terminus assumed), the “Normalised response (to positive control), mean” value (Clytia MIHR [4]) was 0.39, the EC50 (Clytia MIHR [5]; dataset/experiment 1) was 57.7 nM and the EC50 (Clytia MIHR [5]; dataset/experiment 2) was 164 nM. The HillSlope (Clytia MIHR [5]; first dataset) was 1.301, the LogEC50 (Clytia MIHR [5]; first dataset) was -7.239 and the Bottom (Clytia MIHR [5]; first dataset) was 997.1. For the same molecule, the Span (Clytia MIHR [5]; first dataset) was 60319, the Top (Clytia MIHR [5]; first dataset) was 61316 and the “Bottom (best-fit value)” value (Clytia MIHR [5]; [8]) was 5.512. The “HillSlope (best-fit value)” value (Clytia MIHR [5]; [8]) was 1.159, the “LogEC50 (best-fit value)” value (Clytia MIHR [5]; [8]) was -6.887 and the “Span (best-fit value)” value (Clytia MIHR [5]; [8]) was 94.5. It also gave a HillSlope (Clytia MIHR [5]; second dataset) of 1.165, a LogEC50 (Clytia MIHR [5]; second dataset) of -6.785 and a Bottom (Clytia MIHR [5]; second dataset) of 2011. For the same molecule, the Span (Clytia MIHR [5]; second dataset) was 27358, the Top (Clytia MIHR [5]; second dataset) was 29369 and the “EC50 / relative activity on MIHR” value (Clytia MIHR [5]; three independent dose–response experiments) was “highest activity”.

With “AKYFL-NH2 [(+) Ctrl, ligand for Platynereis FLamide receptor]” the “Normalised response (to positive control), mean” value [6] was 1.
